Reference: ChEMBL document CHEMBL4411296, “Design and development of Isatin-triazole hydrazones as potential inhibitors of microtubule affinity-regulating kinase 4 for the therapeutic management of cell proliferation and metastasis” (Eur J Med Chem, 2019)
Active and inactive are the calls of the source. No cut-off for these calls is given here.

Legend:
HepG2 [1] = assay: Induction of apoptosis in human HepG2 cells assessed as early apoptotic cells at IC50 after 24 hrs by Annexin V-FITC/propidium iodide staining-based flow cytometric analysis (reference value: […]); assay type: functional
HepG2 [2] = assay: Induction of apoptosis in human HepG2 cells assessed as necrotic cells at IC50 after 24 hrs by Annexin V-FITC/propidium iodide staining-based flow cytometric analysis (reference value: […]); assay type: functional
HepG2 [3] = assay: Induction of ROS generation in human HepG2 cells at IC50 after 5 to 6 hrs by DCFDA staining-based spectroflourimetric analysis; assay type: functional, cell-based
MCF7 [4] = assay: Induction of ROS generation in human MCF7 cells at IC50 after 5 to 6 hrs by DCFDA staining-based spectroflourimetric analysis; assay type: functional, cell-based
MDA-MB-435S = assay: Induction of ROS generation in human MDA-MB-435S cells at IC50 after 5 to 6 hrs by DCFDA staining-based spectroflourimetric analysis; assay type: functional, cell-based
[5] = biological target: Serine/threonine-protein kinase MARK1 (Homo sapiens) (UniProt Q9P0L2); assay: Inhibition of MARK1 (unknown origin) at 10 uM after 60 mins by ADP-Glo luminescence assay
Sequence of Serine/threonine-protein kinase MARK1 (Homo sapiens) (Q9P0L2 whole entry, looked up): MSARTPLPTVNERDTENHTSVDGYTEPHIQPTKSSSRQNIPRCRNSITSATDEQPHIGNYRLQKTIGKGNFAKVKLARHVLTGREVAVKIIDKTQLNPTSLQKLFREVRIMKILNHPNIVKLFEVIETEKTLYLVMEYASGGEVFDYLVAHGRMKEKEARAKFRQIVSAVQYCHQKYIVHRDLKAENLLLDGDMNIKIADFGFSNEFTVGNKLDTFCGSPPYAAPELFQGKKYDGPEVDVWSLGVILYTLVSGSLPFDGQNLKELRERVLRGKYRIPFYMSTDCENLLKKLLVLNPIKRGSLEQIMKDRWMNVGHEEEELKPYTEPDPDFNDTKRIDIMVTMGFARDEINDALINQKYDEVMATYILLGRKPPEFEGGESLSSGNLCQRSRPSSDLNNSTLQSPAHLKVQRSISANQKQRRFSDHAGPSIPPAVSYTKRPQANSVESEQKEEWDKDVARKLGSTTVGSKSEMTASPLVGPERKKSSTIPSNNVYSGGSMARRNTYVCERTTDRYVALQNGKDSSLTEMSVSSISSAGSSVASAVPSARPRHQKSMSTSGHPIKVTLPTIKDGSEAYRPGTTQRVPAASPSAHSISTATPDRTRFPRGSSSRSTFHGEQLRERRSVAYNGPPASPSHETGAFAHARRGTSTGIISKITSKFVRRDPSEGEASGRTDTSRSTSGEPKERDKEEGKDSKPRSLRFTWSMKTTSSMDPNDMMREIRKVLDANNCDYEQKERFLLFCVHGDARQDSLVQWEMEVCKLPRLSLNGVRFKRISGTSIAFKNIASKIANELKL

[6] = biological target: Serine/threonine-protein kinase 33 (Homo sapiens) (UniProt Q9BYT3); assay: Inhibition of STK33 (unknown origin) at 10 uM after 60 mins by ADP-Glo luminescence assay
Sequence of Serine/threonine-protein kinase 33 (Homo sapiens) (Q9BYT3 whole entry, looked up): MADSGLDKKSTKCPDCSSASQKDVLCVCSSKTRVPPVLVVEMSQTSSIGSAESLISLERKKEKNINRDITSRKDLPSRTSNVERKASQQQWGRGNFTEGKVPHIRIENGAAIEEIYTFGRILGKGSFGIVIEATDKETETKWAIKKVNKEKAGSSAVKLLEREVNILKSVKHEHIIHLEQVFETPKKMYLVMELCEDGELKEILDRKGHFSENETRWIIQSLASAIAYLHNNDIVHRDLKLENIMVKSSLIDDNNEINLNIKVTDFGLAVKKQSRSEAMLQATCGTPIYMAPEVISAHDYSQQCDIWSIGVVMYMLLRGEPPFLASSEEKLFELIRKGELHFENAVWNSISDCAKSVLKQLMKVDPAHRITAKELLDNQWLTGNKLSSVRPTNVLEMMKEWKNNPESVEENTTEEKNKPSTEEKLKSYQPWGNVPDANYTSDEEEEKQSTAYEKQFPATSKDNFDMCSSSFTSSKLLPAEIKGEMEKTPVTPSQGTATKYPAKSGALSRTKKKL

HL-60(TB) = assay: Growth inhibition of human HL-60(TB) cells assessed as cell growth at 10 uM after 48 hrs by sulforhodamine B assay relative to control; assay type: functional; details: HL-60, 48 h, read-out: Activity
HOP-92 = assay: Growth inhibition of human HOP92 cells assessed as cell growth at 10 uM after 48 hrs by sulforhodamine B assay relative to control; assay type: functional; details: HOP-92, 48 h, read-out: Activity
NCI-H23 = assay: Growth inhibition of human NCI-H23 cells assessed as cell growth at 10 uM after 48 hrs by sulforhodamine B assay relative to control; assay type: functional; details: NCI-H23, 48 h, read-out: Activity
HCC 2998 = assay: Growth inhibition of human HCC2998 cells assessed as cell growth at 10 uM after 48 hrs by sulforhodamine B assay relative to control; assay type: functional; details: HCC 2998, 48 h, read-out: Activity
HCT-116 = assay: Growth inhibition of human HCT116 cells assessed as cell growth at 10 uM after 48 hrs by sulforhodamine B assay relative to control; assay type: functional; details: HCT-116, 48 h, read-out: Activity
HCT-15 = assay: Growth inhibition of human HCT15 cells assessed as cell growth at 10 uM after 48 hrs by sulforhodamine B assay relative to control; assay type: functional; details: HCT-15, 48 h, read-out: Activity
HT-29 = assay: Growth inhibition of human HT-29 cells assessed as cell growth at 10 uM after 48 hrs by sulforhodamine B assay relative to control; assay type: functional; details: HT-29, 48 h, read-out: Activity
KM12 = assay: Growth inhibition of human KM12 cells assessed as cell growth at 10 uM after 48 hrs by sulforhodamine B assay relative to control; assay type: functional; details: KM12, 48 h, read-out: Activity
SF-295 = assay: Growth inhibition of human SF295 cells assessed as cell growth at 10 uM after 48 hrs by sulforhodamine B assay relative to control; assay type: functional; details: SF-295, 48 h, read-out: Activity
SNB-75 = assay: Growth inhibition of human SNB75 cells assessed as cell growth at 10 uM after 48 hrs by sulforhodamine B assay relative to control; assay type: functional; details: SNB-75, 48 h, read-out: Activity
U-251 = assay: Growth inhibition of human U251 cells assessed as cell growth at 10 uM after 48 hrs by sulforhodamine B assay relative to control; assay type: functional; details: U-251, 48 h, read-out: Activity
M14 = assay: Growth inhibition of human M14 cells assessed as cell growth at 10 uM after 48 hrs by sulforhodamine B assay relative to control; assay type: functional; details: M14, 48 h, read-out: Activity
MDA-MB-435 = assay: Growth inhibition of human MDA-MB-435 cells assessed as cell growth at 10 uM after 48 hrs by sulforhodamine B assay relative to control; assay type: functional; details: MDA-MB-435, 48 h, read-out: Activity
SK-MEL-2 = assay: Growth inhibition of human SK-MEL-2 cells assessed as cell growth at 10 uM after 48 hrs by sulforhodamine B assay relative to control; assay type: functional; details: SK-MEL-2, 48 h, read-out: Activity
UACC-257 = assay: Growth inhibition of human UACC257 cells assessed as cell growth at 10 uM after 48 hrs by sulforhodamine B assay relative to control; assay type: functional; details: UACC-257, 48 h, read-out: Activity
IGROV-1 = assay: Growth inhibition of human IGROV1 cells assessed as cell growth at 10 uM after 48 hrs by sulforhodamine B assay relative to control; assay type: functional; details: IGROV-1, 48 h, read-out: Activity
OVCAR-4 = assay: Growth inhibition of human OVCAR4 cells assessed as cell growth at 10 uM after 48 hrs by sulforhodamine B assay relative to control; assay type: functional; details: OVCAR-4, 48 h, read-out: Activity
OVCAR-8 = assay: Growth inhibition of human OVCAR8 cells assessed as cell growth at 10 uM after 48 hrs by sulforhodamine B assay relative to control; assay type: functional; details: OVCAR-8, 48 h, read-out: Activity
A498 = assay: Growth inhibition of human A498 cells assessed as cell growth at 10 uM after 48 hrs by sulforhodamine B assay relative to control; assay type: functional; details: A498, 48 h, read-out: Activity
SN12C = assay: Growth inhibition of human SN12C cells assessed as cell growth at 10 uM after 48 hrs by sulforhodamine B assay relative to control; assay type: functional; details: read-out: Activity
UO-31 = assay: Growth inhibition of human UO31 cells assessed as cell growth at 10 uM after 48 hrs by sulforhodamine B assay relative to control; assay type: functional; details: UO-31, 48 h, read-out: Activity
PC-3 = assay: Growth inhibition of human PC3 cells assessed as cell growth at 10 uM after 48 hrs by sulforhodamine B assay relative to control; assay type: functional; details: PC-3, 48 h, read-out: Activity
DU-145 = assay: Growth inhibition of human DU145 cells assessed as cell growth at 10 uM after 48 hrs by sulforhodamine B assay relative to control; assay type: functional; details: DU-145, 48 h, read-out: Activity
MCF7 [7] = assay: Growth inhibition of human MCF7 cells assessed as cell growth at 10 uM after 48 hrs by sulforhodamine B assay relative to control; assay type: functional; details: MCF7, 48 h, read-out: Activity
MDA-MB-231 = assay: Growth inhibition of human MDA-MB-231 cells assessed as cell growth at 10 uM after 48 hrs by sulforhodamine B assay relative to control; assay type: functional; details: MDA-MB-231, 48 h, read-out: Activity
MDA-MB-468 = assay: Growth inhibition of human MDA-MB-468 cells assessed as cell growth at 10 uM after 48 hrs by sulforhodamine B assay relative to control; assay type: functional; details: MDA-MB-468, 48 h, read-out: Activity

SMILES: COc1ccc(Cn2cc(C(=O)N/N=C3/C(=O)Nc4c(C)cccc43)nn2)cc1
- Activity (HepG2 [1]): 37.3%
- Activity (HepG2 [2]): 2.11%
- Activity (HepG2 [3]): Active
- Activity (MCF7 [4]): Active
- Activity (MDA-MB-435S): Active
- inhibition [5]: inactive
- inhibition [6]: inactive
- growth at 10 µM (HL-60(TB)): 78.9%
- growth at 10 µM (HOP-92): 51.3%
- growth at 10 µM (NCI-H23): 89.1%
- growth at 10 µM (HCC 2998): 101%
- growth at 10 µM (HCT-116): 7.1%
- growth at 10 µM (HCT-15): 68%
- growth at 10 µM (HT-29): 67.5%
- growth at 10 µM (KM12): 95.6%
- growth at 10 µM (SF-295): 111%
- growth at 10 µM (SNB-75): 27.3%
- growth at 10 µM (U-251): 108%
- growth at 10 µM (M14): 71.9%
- growth at 10 µM (MDA-MB-435): 82%
- growth at 10 µM (SK-MEL-2): 91.9%
- growth at 10 µM (UACC-257): 93.7%
- growth at 10 µM (IGROV-1): 84.8%
- growth at 10 µM (OVCAR-4): -28.2%
- growth at 10 µM (OVCAR-8): 67.6%
- growth at 10 µM (A498): 101%
- growth at 10 µM (SN12C): 62.1%
- growth at 10 µM (UO-31): 14.8%
- growth at 10 µM (PC-3): 61.3%
- growth at 10 µM (DU-145): 60.4%
- growth at 10 µM (MCF7 [7]): 84.9%
- growth at 10 µM (MDA-MB-231): 51%
- growth at 10 µM (MDA-MB-468): 89.2%
